This note sets out measurements from US8227407B2, “Macrocyclic inhibitors of hepatitis C virus” (Medivir AB, priority 2008, dated 2012).

In experiment [1] the test system is HCV replicons (Huh-7 luc/neo cells, NS3-NS5B regions of HCV type 1b). The experiment is described as follows: HCV replicon assay (Huh-Luc cells, luciferase readout). The class given is cell-based. Particulars: Hepatitis C virus, Huh-7, 72 h, three days incubation, luciferase activity. The protocol:
The in vitro antiviral activity against HCV of the compounds of formula (I) was tested in a cellular HCV replicon system based on Lohmann et al. (1999) Science 285:110-113, with the further modifications described by Krieger et al. (2001) Journal of Virology 75: 4614-4624, which is further exemplified in the examples section. This model, while not a complete infection model for HCV, is widely accepted as the most robust and efficient model of autonomous HCV RNA replication currently available. […] It will be appreciated that it is important to distinguish between compounds that specifically interfere with HCV functions from those that exert cytotoxic or cytostatic effects in the HCV replicon model, and as a consequence cause a decrease in HCV RNA or linked reporter enzyme concentration. […]
The replicon cells were plated in 384 well plates in the presence of the test and control compounds which were added in various concentrations. Following an incubation of three days, HCV replication was measured by assaying luciferase activity (using standard luciferase assay substrates and reagents and a Perkin Elmer ViewLux™ ultraHTS microplate imager). […] The inhibitory activity of the compound on luciferase activity was monitored on the Huh-Luc cells, enabling a dose-response curve for each test compound. […]

The target of experiment [2] is T1, full-length hepatitis C NS3 protease enzyme with NS4A cofactor (HCV NS3/4A protease) (Hepatitis C virus genotype 1a, UniProt P27958).
T1 construct: full-length hepatitis C NS3 protease enzyme
T1 sequence (P27958 1027-1657): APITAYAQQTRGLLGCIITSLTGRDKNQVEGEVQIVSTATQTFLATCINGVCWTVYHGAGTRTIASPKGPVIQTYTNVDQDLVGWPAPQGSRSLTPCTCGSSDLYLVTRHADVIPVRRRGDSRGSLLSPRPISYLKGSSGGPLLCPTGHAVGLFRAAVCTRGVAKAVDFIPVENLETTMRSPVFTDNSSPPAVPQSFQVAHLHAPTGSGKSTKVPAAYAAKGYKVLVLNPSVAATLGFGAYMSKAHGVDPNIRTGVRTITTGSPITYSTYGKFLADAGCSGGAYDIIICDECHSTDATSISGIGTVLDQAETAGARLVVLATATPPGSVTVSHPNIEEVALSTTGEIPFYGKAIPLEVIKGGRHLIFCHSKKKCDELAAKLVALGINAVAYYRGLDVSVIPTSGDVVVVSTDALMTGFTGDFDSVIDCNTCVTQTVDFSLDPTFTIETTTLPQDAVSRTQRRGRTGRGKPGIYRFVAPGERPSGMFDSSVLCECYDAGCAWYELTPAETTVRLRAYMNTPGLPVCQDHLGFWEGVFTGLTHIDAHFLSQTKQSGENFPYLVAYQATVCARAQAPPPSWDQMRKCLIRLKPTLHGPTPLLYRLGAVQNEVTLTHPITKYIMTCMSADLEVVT
Kind of experiment: HCV NS3/4A protease inhibition assay (enzymatic). Particulars: 1 nM enzyme, 25 μM NS4A cofactor, 0.5 μM depsipeptide substrate, 30° C., competitive inhibition model. The class given is biochemical. The protocol:
The aim of this in vitro assay was to measure the inhibition of HCV NS3/4A protease complexes by the compounds of the present invention. This assay provides an indication of how effective compounds of the present invention would be in inhibiting HCV NS3/4A proteolytic activity.
The inhibition of full-length hepatitis C NS3 protease enzyme was measured essentially as described in Poliakov, 2002 Prot Expression & Purification 25 363 371. Briefly, the hydrolysis of a depsipeptide substrate, Ac-DED(Edans)EEAbuψ[COO]ASK(Dabcyl)-NH2 (AnaSpec, San José, USA), was measured spectrofluorometrically in the presence of a peptide cofactor, KKGSVVIVGRIVLSGK (Åke Engström, Department of Medical Biochemistry and Microbiology, Uppsala University, Sweden). [Landro, 1997 #Biochem 36 9340-9348]. The enzyme (1 nM) was incubated in 50 mM HEPES, pH 7.5, 10 mM DTT, 40% glycerol, 0.1% n-octyl-D-glucoside, with 25 μM NS4A cofactor and inhibitor at 30° C. for 10 min, whereupon the reaction was initiated by addition of 0.5 μM substrate. Inhibitors were dissolved in DMSO, sonicated for 30 sec. and vortexed. The solutions were stored at −20° C. between measurements.
The final concentration of DMSO in the assay sample was adjusted to 3.3%. The rate of hydrolysis was corrected for inner filter effects according to published procedures. [Liu, 1999 Analytical Biochemistry 267 331-335]. […]

In experiment [1], `COc1ccc2c(O[C@@H]3C[C@H]4C(=O)N[C@]5(C(=O)NS(=O)(=O)N(C)C)C[C@H]5/C=C\CCCCN(C)C(=O)[C@@H]4C3)cc(-c3nc(C(C)C)cs3)nc2c1` [Compound 37, N-[17-[2-(4-isopropylthiazol-2-yl)-7-methoxyquinolin-4-yloxy]-13-methyl-2,14-dioxo-3,13-diazatricyclo[13.3.0.0^4,6]octadec-7-ene-4-carbonyl](dimethylamino)sulfonamide] displayed an EC50 of 0.3 µM. Also, the Ki in experiment [2] was 24 nM.

In experiment [1], `CCN(C)S(=O)(=O)NC(=O)[C@@]12C[C@H]1/C=C\CCCCN(C)C(=O)[C@@H]1C[C@H](Oc3cc(-c4nc(C(C)C)cs4)nc4cc(OC)ccc34)C[C@H]1C(=O)N2` [Compound 38, N-[17-[2-(4-isopropylthiazol-2-yl)-7-methoxyquinolin-4-yloxy]-13-methyl-2,14-dioxo-3,13-diazatricyclo[13.3.0.0^4,6]octadec-7-ene-4-carbonyl]-[(ethyl)(methyl)amino]sulfonamide] registered an EC50 of 0.3 µM. Moreover, the affinity in experiment [2] corresponds to a Ki of 24 nM.
